According to ChEMBL document CHEMBL2440110, “Synthesis of azide derivative and discovery of glyoxalase pathway inhibitor against pathogenic bacteria” (Bioorg Med Chem Lett, 2013):
Values after ≈ are worked out from the molar mass of the structure shown.

Tests used:
[1] = test system: PBMC; assay: Cytotoxicity against PBMC (unknown origin) at 0.05 mM after 8 hrs by MTT assay; format: cell-based; conditions: 50 µM
[2] = test system: Mycolicibacterium smegmatis; assay: Antibacterial activity against Mycobacterium smegmatis; format: functional
[3] = test system: Staphylococcus aureus; assay: Antibacterial activity against Staphylococcus aureus after 24 hrs by Alamar blue assay; format: functional
[4] = test system: Burkholderia thailandensis; assay: Antibacterial activity against Burkholderia thailandensis; format: functional

| SMILES | Activity [1] | MIC90 [2] | MIC90 [3] | MIC90 [4] |
| --- | --- | --- | --- | --- |
| COC(=O)[C@@H](N=[N+]=[N-])[C@@H](OC(=O)CNC(=O)C(CS)NC(=O)CCC(NC(=O)OCc1ccccc1)C(=O)O)C(=O)OC (stereo partly specified) | Non-toxic | 6 µg/mL (≈ 9.58 µM) | 5 µg/mL (≈ 7.98 µM) | – |
| O=C(O)CNC(=O)C(CS)NC(=O)CCC(NC(=O)OCc1ccccc1)C(=O)O (stereo unspecified) | Non-toxic | – | 20 µg/mL (≈ 45.3 µM) | 12.5 µg/mL (≈ 28.3 µM) |
